Reference: article PMC7719179, “Small molecule inhibition of Dynamin-dependent endocytosis targets multiple niche signals and impairs leukemia stem cells” (Nature Communications, 2020)
Several values for one entry are separate records, joined by “and”; a condition that tells them apart may be missing. Equal entries are not always repeated.

Tests used:
[1] = system: IL-3R, GM-CSFR and c-Kit endocytosis in Ba/F3-SGM3R cells; assay: Surface expression of IL-3R, GM-CSFR and KIT in Ba/F3-SGM3R cells; assay type: cell-based, murine; details: result in words
From the text: The coding sequence of murine Csf2ra (gm-csfr) and c-Kit was amplified by PCR from cDNA of bone marrow mononuclear cells of a healthy WT donor using primers mGmcsfr-FL-F and mGmcsfr-FL-R, and mKit-FL-F and mKit-FL-R, respectively (Table 3). The PCR product was cloned into the XhoI and EcoRI sites of pMIG-R1, which was kindly given by Pear et al.[82],[83]. Ba/F3 cells were infected with pMIG-R1/Gmcsfr retroviral supernatants produced in 293T cells, transduced cells were sorted with a BD Influx (BD Australia) and selected by culture in medium supplemented with 25 ng/mL rmGm-csf (#305-03, Pepro Tech, Rocky Hill NJ, USA) for 7 days. Finally, Ba/F3 cells stably expressing Gm-csfr were infected with pMIG-R1/Kit retroviral supernatants produced in 293T cells to generate Ba/F3-SMG3R cells, which were sorted with a BD Influx and maintained in medium supplemented with 5 ng/mL rmIL-3 (#213-13, Pepro Tech, Rocky Hill NJ, USA).
Mean fluorescence intensity (MFI) ± SD of n=3 biological replicates are shown (*P<0.05, ** P<0.01, ***P<0.001 compared to vehicle) . Basal levels of pStat5 and pErk were measured in unstimulated BaF3-SGM3 R cells (white bar). c, Correlative studies between the relative levels of pStat5 (left) or pErk (right) and the relative survival of BaF3-SGM3R cells treated Dynole 34-2 . […]
in BaF3-SGM3R cells treated with Dynole 34-2 . […] Baseline measured in unstimulated BaF3-SGM3 R cells

[2] = system: Notch1 and Hes1 in Lmo2-transgenic DN3a thymocytes; assay: Surface Notch1 and intracellular Hes1 in Lmo2^Tg DN3a thymocytes on OP9-DL1; assay type: cell-based, mouse; details: Lmo2-transgenic DN3a thymocytes on OP9-DL1 overnight, 0.2 μM Dynole 34-2
Procedure: Phosphoflow analysis was performed as previously described. Briefly, 2 × 10^6 cells stained for surface markers were subsequently resuspended into PBS 1× + 4% v/v paraformaldehyde and incubated for 10 min at 4 °C for fixation. Fixed cells were washed twice using PBS 1×, then resuspended in pre-chilled at −20 °C Perm Buffer III (BD Pharmingen) and incubated 30 min at 4 °C for permeabilization. Cells were washed twice using PBS 1× and incubated overnight at 4 °C in PBS 1× + 2% v/v fetal calf serum (FCS) with Cell Signalling purified antibodies (Genesearch Pty Ltd, Arundel QLD, Australia) against pSTAT5 (Tyr694; #9359), phospho-p38 MAPK (Thr180/Tyr182; #4511), phospho-p44/42 (Erk1/2; #9102), phospho-S6 (Ser235/236; #4856) and phospho-Akt (Ser473; #9271) or isotype control. […] Fluorescence-activated cell sorting (FACS) analysis was performed using LSRII and LSR Fortessa cytometers, following the gating strategies described in Supplementary Fig. 11. […]
For in vitro NOTCH1 signalling activation assays, cells were seeded on OP9 and OP9-DL1 stromal cell lines as described in the co-culture assays section and incubated overnight with either Dynole 34-2 or Ruxolitinib or DAPT resuspended in DMSO. […] Cells were washed twice, fixed and analysed for intracellular HES1 detection by flow cytometry as described in the FACS analysis section. […]

CCCCCCCCNC(=O)C(C#N)=Cc1cn(CCCN(C)C)c2ccccc12 [Dynole 34-2, 2-Cyano-N-octyl-3-(1-(3-dimethylaminopropyl)-1H-indol-3-yl)-acrylamide]
endocytosis of c-Kit, GM-CSFR and IL-3R [1]: impaired endocytosis
Hes1 (MFI) [2]: 18345 MFI and 12543 MFI and 14751 MFI and 12961 MFI
Notch1 (MFI) [2]: 16352 MFI and 11570 MFI and 16901 MFI and 11730 MFI
